Test results taken from ChEMBL document CHEMBL1201862, “PubChem BioAssay data set” (2004).
“And” between values parts separate entries of the source, which are not always exact repeats. Equal values may be shown once. The source made the active and inactive calls. Cut-off read from the data, not from the text of the source, for most assays here: actives have a measured EC50 and inactives only a lower limit.

Key:
[1] = molecular target: T1, Rac GTPase-activating protein 1 (Homo sapiens, UniProt Q9H0H5); assay: blockers of MgcRacGAP-driven Rac1 GTP hydrolysis – biochemical, ADP Hunter fluorescence, primary and confirmatory, confirmation (AID 624330); assay type: functional
T1 sequence (Q9H0H5 whole entry): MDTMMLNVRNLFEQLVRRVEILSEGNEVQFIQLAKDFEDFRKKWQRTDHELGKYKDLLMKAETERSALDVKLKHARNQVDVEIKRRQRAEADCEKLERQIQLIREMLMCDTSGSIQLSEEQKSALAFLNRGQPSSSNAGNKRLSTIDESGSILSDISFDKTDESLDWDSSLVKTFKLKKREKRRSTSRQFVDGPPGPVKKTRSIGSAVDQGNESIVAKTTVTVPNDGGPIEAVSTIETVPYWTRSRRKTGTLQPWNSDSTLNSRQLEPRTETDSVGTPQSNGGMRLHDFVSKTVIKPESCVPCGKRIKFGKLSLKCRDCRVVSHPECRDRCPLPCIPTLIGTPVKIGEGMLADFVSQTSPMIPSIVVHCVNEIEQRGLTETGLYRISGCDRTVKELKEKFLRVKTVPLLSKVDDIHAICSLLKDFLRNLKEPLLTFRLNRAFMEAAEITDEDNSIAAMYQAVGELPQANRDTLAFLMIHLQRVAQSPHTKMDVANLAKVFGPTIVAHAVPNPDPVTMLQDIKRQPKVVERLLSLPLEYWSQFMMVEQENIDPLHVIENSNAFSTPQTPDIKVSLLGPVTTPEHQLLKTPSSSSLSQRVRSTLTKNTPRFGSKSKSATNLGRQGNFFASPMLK

[2] = Trypanosoma cruzi growth suppression in host cells – NIH3T3 host cells, beta-gal luminescence, confirmation (AID 2044); assay type: functional, cell-based;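 note: intracellular parasites grown in NIH/3T3 mouse fibroblasts as host cells; luminescent beta-galactosidase reporter signal from transgenic T. cruzi replicating inside host cells; inhibitors lower the luminescence signal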
[3] = NIH3T3 cell viability loss – ATP luminescence, mouse fibroblasts, counter-screen, dose response (AID 2010); assay type: functional, cell-based;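 note: cells exposed to compound for about 90 hours before reading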
Cytochrome P450 1A2 = molecular target: T2, Cytochrome P450 1A2 (Homo sapiens, UniProt P05177);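 note: PubChem cytochrome P450 panel assay, CYP1A2 panel member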
T2 sequence (P05177 whole entry): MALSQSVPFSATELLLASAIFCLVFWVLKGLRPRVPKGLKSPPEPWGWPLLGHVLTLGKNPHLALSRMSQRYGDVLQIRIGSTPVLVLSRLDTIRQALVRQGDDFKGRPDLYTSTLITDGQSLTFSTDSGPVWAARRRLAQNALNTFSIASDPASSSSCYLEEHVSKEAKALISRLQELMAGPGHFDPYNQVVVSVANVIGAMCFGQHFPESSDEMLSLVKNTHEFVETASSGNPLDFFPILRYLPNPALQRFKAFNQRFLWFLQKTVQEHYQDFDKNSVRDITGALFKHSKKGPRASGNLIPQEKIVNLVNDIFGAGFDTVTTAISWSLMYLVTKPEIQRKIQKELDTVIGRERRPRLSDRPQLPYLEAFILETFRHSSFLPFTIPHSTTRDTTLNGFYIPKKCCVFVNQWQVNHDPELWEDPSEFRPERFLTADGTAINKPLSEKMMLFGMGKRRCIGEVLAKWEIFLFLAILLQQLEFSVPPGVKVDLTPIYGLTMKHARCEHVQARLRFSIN

Streptokinase A = molecular target: T3, Streptokinase A (Streptococcus pyogenes serotype M1, UniProt P10520); assay: viability-normalized secreted streptokinase activity reduction – plasminogen activation absorbance, OD405, dose response (AID 1914); assay type: functional, Streptococcus pyogenes M1 GAS;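 note: secreted streptokinase activity via plasminogen activation per viability signal from cell pellet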
T3 sequence (P10520 whole entry): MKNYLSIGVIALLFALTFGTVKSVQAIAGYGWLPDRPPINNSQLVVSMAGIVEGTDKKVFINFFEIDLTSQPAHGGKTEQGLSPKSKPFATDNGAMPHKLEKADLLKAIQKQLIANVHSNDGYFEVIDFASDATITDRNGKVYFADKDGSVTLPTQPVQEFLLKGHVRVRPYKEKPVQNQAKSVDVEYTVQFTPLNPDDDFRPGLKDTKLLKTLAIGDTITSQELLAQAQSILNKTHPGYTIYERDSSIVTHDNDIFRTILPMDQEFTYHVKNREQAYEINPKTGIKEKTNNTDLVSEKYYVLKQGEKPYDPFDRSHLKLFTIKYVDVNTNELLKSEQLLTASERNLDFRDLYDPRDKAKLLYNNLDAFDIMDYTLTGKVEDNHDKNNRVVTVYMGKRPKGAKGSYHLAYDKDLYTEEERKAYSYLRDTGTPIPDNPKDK

[4] = test system: Streptococcus sp. 'group A'; assay: Streptococcus pyogenes SK(-)GAS viability under kanamycin – luminescence, BacTiterGlo, confirmation, counter-screen for streptokinase expression inhibitor project, dose response (AID 1900); assay type: functional, organism-based
Streptococcus = assay: GAS UMAA2166 growth inhibition – luminescence, BacTiterGlo, counter-screen for streptokinase expression inhibitor project, dose response (AID 1915); assay type: functional, organism-based;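 note: potency for reduction of bacterial viability or growth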
[5] = Luminescence Cell-Based Dose Response HTS to Identify Activators of Luciferase Translation or Activity in H4 […] Cells. [Related pubchem assays: 1829 (Project Summary), 1814 (Primary HTS)]; assay type: functional

CN1CCC(N(C)CC(=O)Nc2ccc3c(c2)OC(F)(F)O3)CC1
IC50 [1]: 65.9 µM (active)

O=C(NCCCN1CCN(CCCNC(=O)c2cccc([N+](=O)[O-])c2)CC1)c1cccc([N+](=O)[O-])c1
EC50 [2]: 1.11 µM (active)
EC50 [3]: > 30 µM (not active)

Cc1onc(-c2ccccc2Cl)c1C(=O)O/N=C(\N)c1ccccc1
EC50 [2]: 2.34 µM (active)
EC50 [3]: > 60 µM (not active)

CCC/C=C(\CCC)C(NS(=O)(=O)c1ccc(Cl)cc1)c1ccccc1 (centres undefined)
AC50 (Cytochrome P450 1A2): 12.6 µM (inconclusive)

COc1ccc(CN2CCN(Cc3ccc4ccccc4c3)CC2)cc1OC
IC50 [1]: 76.4 µM (active)

O=C(CSc1nc2nncc-2c(O)n1-c1ccc(Cl)c(Cl)c1)NCc1ccccc1Cl
EC50 [2]: 2.43 µM (active)
EC50 [3]: > 60 µM (inconclusive)

Nc1ccc(OCc2ccco2)cc1
IC50 [1]: 49.8 µM (active)

O=C(Nc1ccccc1N1CCCC1)c1ccc2c(c1)OCO2
EC50 (Streptokinase A): > 150 µM (not active)
EC50 [4]: > 150 µM (not active)
EC50 (Streptococcus): > 150 µM (not active)

Cc1ccc(NP(=O)(c2ccc(N(C)C)cc2NC(=O)c2cccs2)N2CCOCC2)cc1 (centres undefined)
EC50 [2]: 1.49 µM (active)
EC50 [3]: > 60 µM (not active)

CC(=O)Nc1ccc(OC(=O)c2cc3ccccc3oc2=O)cc1
IC50 [1]: 23.2 µM (active)

O=C(NC1CCCC1)C(c1ccccc1)N(Cc1cccnc1)C(=O)Cc1cccs1 (centres undefined)
EC50 [2]: 1.45 µM (active)
EC50 [3]: > 60 µM (not active)

COc1ccc(NC(=O)CN(C)C(=O)/C=C/c2cn(-c3ccccc3)nc2-c2ccc(F)cc2)cc1
EC50 (Streptokinase A): 53.8 µM (inconclusive)
EC50 [4]: 26.5 µM (active)
EC50 (Streptococcus): 68.1 µM (active)

CCCCc1sc(-c2c(C#N)c(N)nc3c2CCCCC3)cc1[N+](=O)[O-]
EC50 [2]: 1.98 µM (active)
EC50 [3]: > 60 µM (not active)

CC(CCN1CCN(CCO)CC1)c1ccccc1 (centres undefined)
IC50 [1]: 153 µM (active)

COc1ccc(CCC(=O)N2CCN(C3CCCCC3)CC2)cc1
EC50 [2]: 1.53 µM (active)
EC50 [3]: > 60 µM (not active)

Cc1ccc(NC(=O)COc2ccc(CCO)cc2-n2nc3ccccc3n2)cc1C
EC50 [2]: 1.61 µM (active)
EC50 [3]: > 60 µM (inconclusive)

COc1ccc(C(=O)NCC(=O)OCC(=O)N2N=C(c3ccc(Cl)cc3)CC2c2ccco2)cc1OC (centres undefined)
EC50 (Streptokinase A): > 150 µM (not active)
EC50 [4]: 47 µM (active)
EC50 (Streptococcus): > 150 µM (not active)

Cc1oc(-c2cc(Cl)cc(Cl)c2)cc1C(=O)NCCc1ccccc1
EC50 (Streptokinase A): 2.57 µM (active)
EC50 [4]: 17.3 µM (active)
EC50 (Streptococcus): 48.3 µM (active)

CCOC(=O)C1(CCOc2ccccc2)CCN(Cc2cccc3nonc23)CC1
EC50 [2]: 1.49 µM (active)
EC50 [3]: > 60 µM (not active)

COc1ccccc1-c1nnc(NC(=O)CCS(=O)(=O)c2ccccc2)o1
EC50 (Streptokinase A): > 150 µM (not active)
EC50 [4]: > 150 µM (not active)
EC50 (Streptococcus): > 150 µM (not active)

C[C@H]1C=C2C=C[C@H](C)[C@H](CC[C@@H]3C[C@@H](O)CC(=O)O3)[C@H]2[C@@H](OC(=O)[C@@H](C)CCO)C1
AC50 (Cytochrome P450 1A2): 31.6 µM (inconclusive)

Fc1ccc(N2CCN(Cc3c[nH]c4ccccc34)CC2)cc1
EC50 [2]: 0.69 µM (active)
EC50 [3]: > 60 µM (not active)

O=C(CCC1CCCN(Cc2ccncc2)C1)NCc1ccc(F)c(F)c1 (centres undefined)
EC50 [2]: 0.661 µM (active)
EC50 [3]: > 60 µM (not active)

CC(C)/C=C1\CC/C(=C\c2cccnc2)C1=O
EC50 [2]: 1.14 µM (active)
EC50 [3]: > 60 µM (not active)

CC(C)(C)OC(=O)NCCCC[C@H](NC(=O)c1[nH]cnc1C(=O)Nc1ccc(Cl)cc1)C(=O)OC(C)(C)C
EC50 (Streptokinase A): > 150 µM (not active)
EC50 [4]: 3.64 µM (active)
EC50 (Streptococcus): 8.04 µM (active)

O=C(Nc1ccc(-c2csc(Nc3ccc(Cl)cc3)n2)cc1)c1cccc(C(F)(F)F)c1
EC50 [2]: 1.76 µM (active)
EC50 [3]: 7.75 µM (active)

COc1c(Cl)cc(Cl)cc1C(=O)Nc1ccc(NC(=O)c2cccs2)cc1
EC50 [2]: 1.95 µM (active)
EC50 [3]: > 60 µM (not active)

COc1cccc(C(=O)C2CCCN(Cc3ccc(OC)c(Cn4cncn4)c3)C2)c1 (centres undefined)
EC50 [2]: 0.398 µM (active)
EC50 [3]: > 60 µM (not active)

CC(C)Sc1cc(N2CCCC2)nc(-c2ccccc2)n1
EC50 (Streptokinase A): 11.2 µM (active)
EC50 [4]: 12.3 µM (active)
EC50 (Streptococcus): > 150 µM (not active)

CCN1CCN(c2ccc(S(=O)(=O)N3CCOCC3)cc2NC(=O)COc2ccc(F)cc2Cl)CC1
EC50 [2]: 1.06 µM (active)
EC50 [3]: 19.2 µM (active)

Cc1ccc(S(=O)(=O)N2CCC(C(=O)Nc3ccc(S(=O)(=O)N4CCCC4)cc3)CC2)cc1C
EC50 [2]: 0.795 µM (active)
EC50 [3]: > 30 µM (not active)

CCc1ccc2c(c1)C(c1ccc(N3CCOCC3)cc1)=NNC(c1ccncc1)=N2
EC50 [2]: 1.5 µM (active)
EC50 [3]: > 30 µM (not active)

O=C(NC(=S)N1CCCCC1c1cccnc1)c1ccc(F)cc1 (centres undefined)
EC50 (Streptokinase A): > 150 µM (not active)
EC50 [4]: > 150 µM (not active)
EC50 (Streptococcus): > 150 µM (not active)

CSc1ccc(/C=C2\CCn3c2nc2cc(C(=O)O)ccc2c3=O)cc1
EC50 (Streptokinase A): > 150 µM (not active)
EC50 [4]: 23.1 µM (active)
EC50 (Streptococcus): > 150 µM (not active)

CCOC(=O)c1[nH]c2ccccc2c1N=C(S)Nc1ccccc1C
IC50 [1]: 65.9 µM (active)

CCN1C(=O)c2ccc(C(=O)Nc3ccc(O)cc3C)cc2C1=O
IC50 [1]: 108 µM (active)

C[C@@H]1C[C@H](OC(=O)c2ccccc2O)CC(C)(C)C1
AC50 (Cytochrome P450 1A2): 12.6 µM (inconclusive)

NS(=O)(=O)c1ccc(CCNCC(=O)N2CCC(Cc3ccccc3)CC2)cc1
IC50 [1]: 283 µM (active)

Brc1ccc(OCc2ccccc2)c(CNCc2ccncc2)c1
EC50 [2]: 0.802 µM (active)
EC50 [3]: > 60 µM (not active)

COc1ccc(NC(=O)c2ccc(NC(=O)CN3CCN(c4ccc(O)cc4)CC3)cc2)cc1
IC50 [1]: 63 µM (active)

N#CCCN1CCN(CCC#N)c2ccccc21
IC50 [1]: 16.1 µM (active)

CCCN(CCC)[C@H]1CCc2c(F)ccc(O)c2C1
AC50 (Cytochrome P450 1A2): 12.6 µM (inconclusive) and 25.1 µM (inconclusive)

CC(C)c1ccc(/C=N/N2CCCCC2)cc1
IC50 [1]: 220 µM (active)

COc1cc(/C=N/NC(=O)c2nnn(-c3nonc3N)c2C(C)C)ccc1O
IC50 [1]: 31 µM (active)

CC(C)c1ccc(/C=N/n2c(S)nnc2-c2ccccc2)cc1
EC50 (Streptokinase A): > 150 µM (not active)
EC50 [4]: 18.3 µM (active)
EC50 (Streptococcus): > 150 µM (not active)

COc1ccc2c(c1)CC/C2=N\OC(=O)c1cccc(C)c1
EC50 [5]: 0.105 µM (active)

COc1cccc(/C=N/NC(=O)c2cccc([N+](=O)[O-])c2)c1OS(=O)(=O)c1ccc(C)cc1
AC50 (Cytochrome P450 1A2): 6.31 µM (inconclusive)

COc1c(-c2ccc(O)c(O)c2)oc2cc(O)cc(O)c2c1=O [3-O-METHYLQUERCETIN]
IC50 [1]: 30.3 µM (active)

O=C1CCc2cc(OCCCCc3nnnn3C3CCCCC3)ccc2N1 [CILOSTAZOL]
AC50 (Cytochrome P450 1A2): 39.8 µM (inconclusive)

CC(=O)CCCCn1c(=O)c2c(ncn2C)n(C)c1=O [PENTOXIFYLLINE]
AC50 (Cytochrome P450 1A2): 12.6 µM (inconclusive)
